The values that follow come from patent US20220192996A1, “CORE-SHELL STRUCTURE, PREPARATION, MEDICINE FOR EXTERNAL APPLICATION, TAPE AGENT AND COSMETIC PRODUCT” (SEKISUI CHEMICAL CO., LTD., priority 2019, published 2022).

Counter-ions that a name gives are not always drawn.

In one data set the test system is dorsal skin of a rabbit. The data set is described as follows: Primary irritation index of the active ingredient (4% by weight in Plastibase). The class given is in vivo. The conditions noted are these: 24 h enclosed application.
Data set [1] is described as follows: Octanol/water partition coefficient. The format is physicochemical. The conditions noted are these: Log10, octanol / aqueous buffer pH 7. On the procedure: In the present invention, the octanol/water partition coefficient is determined from the concentration of the active ingredient in each phase by adding the active ingredient to octanol and an aqueous buffer solution having a pH of 7 in a flask and then shaking the flask. Specifically, the octanol/water partition coefficient can be determined by calculating using the formula: octanol/water partition coefficient=Log10 (concentration in octanol phase/concentration in aqueous phase).

Experimental for dorsal skin of a rabbit: The phrase “low skin irritation” means skin irritation having a primary irritation index (P.I.I.) of 5 or less. The primary irritation index can be measured by the following method.
An active ingredient is added and mixed to an ointment base, Plastibase (manufactured by Taisho Pharmaceutical Co., Ltd.) so as to be 4% by weight based on the total weight, and dispersed to produce a preparation.
The dorsal skin of a rabbit is shaved with an electric clipper (with an electric shaver if necessary). On the dorsal healthy skin, two points in each of right and left sides of the dorsal midline, that is, four points in total are set to be an administration site. Next, the produced preparation is taken out with a spatula and spread evenly on a piece of lint having a size of 2 cm×2 cm, and the piece of lint is attached to the administration site. The piece of lint is fixed by covering with a non-woven adhesive bandage (manufactured by Nichiban Co., Ltd., MESHPORE, No. 50). Then, the administration sites are altogether wrapped with gauze and enclosed by covering with an adhesive cloth elastic bandage (manufactured by Nichiban Co., Ltd., ELASTOPORE, No. 100). The enclosure is released 24 hours after the start of administration, and the administered samples are removed.
The skin reaction is visually observed with the naked eye 24 hours after the administration (30 minutes after the release of the enclosure and the removal of the administered samples). […]
Specifically, for each administered sample at each time of observation, the individual score of the skin reaction at the administration site of each rabbit (the total of scores of erythema/eschar formation and edema formation) is calculated. Then, the primary irritation index (P.I.I.) is calculated from the individual scores at 24 hours and 72 hours after the administration (the score at 48 hours after the administration is not added). Specifically, the primary irritation index is calculated using Formulae (1) and (2) described below. […]

Turning to `CC(C(=O)O)c1ccc(CC2CCCC2=O)cc1` (centres unmarked) [loxoprofen sodium dihydrate], the “primary irritation index (P.I.I.) of the active ingredient” value in the data set on dorsal skin of a rabbit worked out at 0.3.

As to `CC12CC3CC(C)(C1)CC(N)(C3)C2` [memantine hydrochloride], in the data set with dorsal skin of a rabbit, the “primary irritation index (P.I.I.) of the active ingredient” value is on record as 2.5.

For the compound `CCN(C)C(=O)Oc1cccc([C@H](C)N(C)C)c1` [rivastigmine], the “primary irritation index (P.I.I.) of the active ingredient” value in the data set on dorsal skin of a rabbit is 0.5.

On to `CCCc1nc(C)c2c(=O)[nH]c(-c3cc(S(=O)(=O)N4CCN(CC)CC4)ccc3OCC)nn12` [vardenafil hydrochloride hydrate], for which the octanol/water partition coefficient in data set [1] worked out at 0.0. The compound further came in with a logD in data set [1] (octanol / aqueous buffer solution) of 0.
